Our source for the IC50 values is patent US10669269B2, “Substituted N-(1H-indazol-4-yl)imidazo[1,2-a]pyridine-3-carboxamide compounds as type III receptor tyrosine kinase inhibitors” (ARRAY BIOPHARMA INC., priority 2010, dated 2020).

The IC50 is the concentration that gives 50% inhibition.

Counter-ions that a name gives are not always drawn.

In assay [1] the target is T1, PDGFR beta (Homo sapiens, UniProt P09619).
T1 construct: endogenous in cells; host or cells: HS27 human fibroblast cell line
T1 sequence (P09619 33-1106): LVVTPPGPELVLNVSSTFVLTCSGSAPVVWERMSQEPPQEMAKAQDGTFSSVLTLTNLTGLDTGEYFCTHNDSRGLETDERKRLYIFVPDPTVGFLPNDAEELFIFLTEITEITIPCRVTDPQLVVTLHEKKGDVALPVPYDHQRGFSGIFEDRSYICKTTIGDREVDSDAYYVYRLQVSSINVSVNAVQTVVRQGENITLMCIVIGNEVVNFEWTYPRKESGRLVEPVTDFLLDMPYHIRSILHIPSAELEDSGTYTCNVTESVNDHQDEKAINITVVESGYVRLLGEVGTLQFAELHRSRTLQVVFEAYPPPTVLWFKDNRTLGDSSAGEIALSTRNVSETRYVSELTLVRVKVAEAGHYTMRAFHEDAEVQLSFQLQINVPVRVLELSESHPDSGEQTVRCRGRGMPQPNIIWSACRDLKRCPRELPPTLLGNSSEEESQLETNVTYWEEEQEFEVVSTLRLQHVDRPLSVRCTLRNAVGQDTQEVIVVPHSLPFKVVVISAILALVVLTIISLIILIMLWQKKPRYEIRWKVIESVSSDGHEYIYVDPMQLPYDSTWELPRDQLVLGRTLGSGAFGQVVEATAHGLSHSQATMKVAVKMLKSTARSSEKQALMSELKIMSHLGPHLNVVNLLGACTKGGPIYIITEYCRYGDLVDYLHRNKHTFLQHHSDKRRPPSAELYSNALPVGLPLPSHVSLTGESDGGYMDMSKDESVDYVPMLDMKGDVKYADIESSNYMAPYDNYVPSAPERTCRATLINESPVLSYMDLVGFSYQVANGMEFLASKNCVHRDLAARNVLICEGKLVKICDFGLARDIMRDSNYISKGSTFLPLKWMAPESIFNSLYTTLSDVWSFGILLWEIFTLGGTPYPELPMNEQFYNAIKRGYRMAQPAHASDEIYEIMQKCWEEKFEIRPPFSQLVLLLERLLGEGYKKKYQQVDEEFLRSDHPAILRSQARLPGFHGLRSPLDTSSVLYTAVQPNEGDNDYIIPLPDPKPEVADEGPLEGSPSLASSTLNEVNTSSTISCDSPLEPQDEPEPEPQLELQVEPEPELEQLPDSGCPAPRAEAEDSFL
The experiment in a line: Phospho PDGFR LICOR Cell Assay (Example B). It counts as cell-based. Conditions: averaged IC50; PDGFR beta phosphorylation in HS27 human fibroblast cell line, PDGF-BB stimulation 10 minutes, normalized to total ERK. In a few lines: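 HS27 human fibroblasts pretreated 1 h with compound, then stimulated 10 min with PDGF-BB. Fixed, permeabilized cells immunostained for phospho-PDGFRβ and total ERK and read by two-colour infrared fluorescence, with phospho signal normalized to ERK. IC50 = 50% of control from 4-parameter logistic fit.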

For a further assay, the target named is T2, cFMS (Homo sapiens, UniProt P07333).
T2 construct: THP-1 cells (human acute monocytic leukemia cell line) were serum-starved for 4 hours; endogenous in cells; host or cells: THP-1 cells (human acute monocytic leukemia cell line)
T2 sequence (P07333 20-972): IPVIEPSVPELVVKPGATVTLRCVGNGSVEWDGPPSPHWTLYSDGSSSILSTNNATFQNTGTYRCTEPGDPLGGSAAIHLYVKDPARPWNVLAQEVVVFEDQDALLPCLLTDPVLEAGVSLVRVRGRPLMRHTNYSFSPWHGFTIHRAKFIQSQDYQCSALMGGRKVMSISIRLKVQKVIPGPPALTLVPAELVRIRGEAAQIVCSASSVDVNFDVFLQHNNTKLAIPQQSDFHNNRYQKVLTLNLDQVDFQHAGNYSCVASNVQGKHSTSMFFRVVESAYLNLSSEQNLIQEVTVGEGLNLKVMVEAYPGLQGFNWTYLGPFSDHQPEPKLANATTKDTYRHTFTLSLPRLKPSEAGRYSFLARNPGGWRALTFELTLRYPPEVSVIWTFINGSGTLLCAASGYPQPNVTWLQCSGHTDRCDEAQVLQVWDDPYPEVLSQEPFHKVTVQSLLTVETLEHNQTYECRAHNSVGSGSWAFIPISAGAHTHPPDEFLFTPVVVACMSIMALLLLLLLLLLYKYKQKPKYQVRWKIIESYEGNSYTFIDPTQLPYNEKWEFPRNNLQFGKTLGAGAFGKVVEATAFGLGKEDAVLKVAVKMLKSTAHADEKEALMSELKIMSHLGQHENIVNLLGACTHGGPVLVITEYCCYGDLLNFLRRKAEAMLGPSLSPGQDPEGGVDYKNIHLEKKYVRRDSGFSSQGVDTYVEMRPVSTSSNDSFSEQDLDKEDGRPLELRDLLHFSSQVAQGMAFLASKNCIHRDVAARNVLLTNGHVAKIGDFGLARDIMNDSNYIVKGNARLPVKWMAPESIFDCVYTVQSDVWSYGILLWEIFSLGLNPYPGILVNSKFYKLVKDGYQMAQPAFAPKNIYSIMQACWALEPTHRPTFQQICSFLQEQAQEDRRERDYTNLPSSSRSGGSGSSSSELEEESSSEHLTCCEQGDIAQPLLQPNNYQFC
Nature of the assay: cFMS Cell-Based Assay (Example C). The settings on record: averaged IC50; phospho-cFMS in THP-1 cells stimulated with 250 ng/mL recombinant human MCSF; read-out: cFMS Cell ELISA IC50. In short, it runs like this:
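THP-1 cells serum-starved 4 h, then treated 1 h with compound (9-point, 3-fold series, top dose typically 5,000 nM) at 37 °C, then stimulated 1 min with 250 ng/mL recombinant human MCSF. Phospho-cFMS in lysates quantified by capture ELISA against a purified phospho-protein standard curve. IC50 at 50 percent of control, 4-parameter logistic fit.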
For orientation: In an ELISA, binding on a coated surface is turned into a signal by an enzyme label.

A further assay concerns the target T3, c-KIT (Homo sapiens, UniProt P10721).
T3 construct: M-07e cells (human acute megakaryoblastic leukemia cell line) were serum-starved for 4 hours; endogenous in cells; host or cells: M-07e cells (human acute megakaryoblastic leukemia cell line)
The experiment in a line: c-KIT Cell-Based Assay (Example D). The settings on record: averaged IC50; phospho-c-KIT in M-07e cells stimulated with 150 ng/ml recombinant human SCF; read-out: cKIT Cell ELISA IC50. In short, it runs like this:
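M-07e cells serum-starved 4 h, treated 1 h with compound (9-point, 3-fold dilutions, top dose typically 5,000 nM) at 37° C, then stimulated 4 min with 150 ng/ml SCF. Phospho-c-KIT in lysates quantified by ELISA against a standard curve; IC50 from 4-parameter logistic fit as 50% of control.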

The target in assay [2] is T1, PDGFR beta. Nature of the assay: Phospho PDGFR Cell Assay, sandwich ELISA (Example A). In kind it is cell-based. The settings on record: averaged IC50, PDGFR beta phosphorylation in HS27 human fibroblast cell line, PDGF-BB stimulation 5 minutes. In short, it runs like this: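 HS27 human fibroblasts were pretreated with compound for 1 h, stimulated with PDGF-BB for 5 min, then lysed. Phospho-PDGFR beta was measured by sandwich ELISA, and IC50 was taken as the concentration giving 50 percent of control from a 4-parameter logistic fit.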

T3 sequence (P10721 26-976): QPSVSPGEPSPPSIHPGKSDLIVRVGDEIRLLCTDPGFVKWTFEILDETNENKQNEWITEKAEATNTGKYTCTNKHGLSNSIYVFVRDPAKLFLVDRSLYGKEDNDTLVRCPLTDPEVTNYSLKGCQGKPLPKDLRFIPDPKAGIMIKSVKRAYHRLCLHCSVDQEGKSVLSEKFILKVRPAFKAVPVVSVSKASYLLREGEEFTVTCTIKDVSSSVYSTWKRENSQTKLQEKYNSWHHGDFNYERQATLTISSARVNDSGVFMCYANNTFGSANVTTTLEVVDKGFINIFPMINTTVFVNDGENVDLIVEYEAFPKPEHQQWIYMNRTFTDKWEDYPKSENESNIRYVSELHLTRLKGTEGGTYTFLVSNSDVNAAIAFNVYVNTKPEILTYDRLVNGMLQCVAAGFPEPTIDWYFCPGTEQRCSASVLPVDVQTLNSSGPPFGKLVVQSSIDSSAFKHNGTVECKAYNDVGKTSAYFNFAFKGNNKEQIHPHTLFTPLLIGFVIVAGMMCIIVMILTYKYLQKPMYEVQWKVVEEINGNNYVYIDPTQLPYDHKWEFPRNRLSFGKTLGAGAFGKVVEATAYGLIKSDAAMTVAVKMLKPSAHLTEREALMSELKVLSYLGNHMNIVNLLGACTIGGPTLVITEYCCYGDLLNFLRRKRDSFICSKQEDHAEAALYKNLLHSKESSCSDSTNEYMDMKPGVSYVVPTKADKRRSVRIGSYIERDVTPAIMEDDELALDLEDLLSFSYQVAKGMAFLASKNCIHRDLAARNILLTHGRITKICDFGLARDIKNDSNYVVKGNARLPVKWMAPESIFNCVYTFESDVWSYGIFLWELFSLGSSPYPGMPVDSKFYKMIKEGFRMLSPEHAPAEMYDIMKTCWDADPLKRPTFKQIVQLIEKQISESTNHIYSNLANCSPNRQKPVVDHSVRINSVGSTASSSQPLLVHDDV

In the case of `Cc1nn(Cc2cccc(C3CC3)n2)c2cccc(NC(=O)c3cnc4cc(OCCN5CCOCC5)ccn34)c12` [Example 18, N-(1-((6-cyclopropylpyridin-2-yl)methyl)-3-methyl-1H-indazol-4-yl)-7-(2-morpholinoethoxy)imidazo[1,2-a]pyridine-3-carboxamide], the IC50 against PDGFR beta [1] came to 674 nM; at cFMS, 10.2 nM; at c-KIT it was 81.8 nM; on PDGFR beta [2], 59.9 nM.

Consider `Cc1nn(Cc2cccc(C(C)C)n2)c2cccc(NC(=O)c3cnc4cc(OCCN5CCN(C)[C@@H](C)C5)ccn34)c12` [Example 25, (S)-7-(2-(3,4-dimethylpiperazin-1-yl)ethoxy)-N-(1-((6-isopropylpyridin-2-yl)methyl)-3-methyl-1H-indazol-4-yl)imidazo[1,2-a]pyridine-3-carboxamide], for which the IC50 stood at 18 nM on PDGFR beta [1], 23.8 nM at cFMS, 51.4 nM at c-KIT and 41.8 nM on PDGFR beta [2].

Turning to `Cc1nn(Cc2cccc(C(C)C)n2)c2cccc(NC(=O)c3cnc4cc(OCCN5CCOCC5)ccn34)c12` [Example 1, N-(1-((6-isopropylpyridin-2-yl)methyl)-3-methyl-1H-indazol-4-yl)-7-(2-morpholinoethoxy)imidazo[1,2-a]pyridine-3-carboxamide], the 50% inhibitory concentration (IC50) on PDGFR beta [1] worked out at 12.9 nM; at cFMS, 16.1 nM; at c-KIT, 53.3 nM; on PDGFR beta [2] it was 29.7 nM.

For `CCN1CCN(CCOc2ccn3c(C(=O)Nc4cccc5c4c(C)nn5Cc4cccc(C5CC5)n4)cnc3c2)CC1` [Example 17, N-(1-((6-cyclopropylpyridin-2-yl)methyl)-3-methyl-1H-indazol-4-yl)-7-(2-(4-ethylpiperazin-1-yl)ethoxy)imidazo[1,2-a]pyridine-3-carboxamide], the IC50 stood at 313 nM on PDGFR beta [1], 11 nM at cFMS, 54.2 nM on c-KIT and 85 nM at PDGFR beta [2].

Regarding `O=C(Nc1cccc2c1cnn2Cc1ccccc1)c1cnc2cc(OCC(O)CO)ccn12` (stereo not drawn) [Example 91, N-(1-benzyl-1H-indazol-4-yl)-7-(2,3-dihydroxypropoxy)imidazo[1,2-a]pyridine-3-carboxamide], the 50% inhibitory concentration (IC50) against PDGFR beta [1] was 10.9 nM; at cFMS, 4.4 nM; on c-KIT it was 30.1 nM; against PDGFR beta [2], 22.2 nM.

As to `CCN1CCN(CCOc2ccn3c(C(=O)Nc4cccc5c4c(C)nn5Cc4cccc(C(C)C)n4)cnc3c2)CC1` [Example 2, 7-(2-(4-Ethylpiperazin-1-yl)ethoxy)-N-(1-((6-isopropylpyridin-2-yl)methyl)-3-methyl-1H-indazol-4-yl)imidazo[1,2-a]pyridine-3-carboxamide], the 50% inhibitory concentration (IC50) on PDGFR beta [1] was determined as 23.7 nM; on cFMS, 27.7 nM; on c-KIT, 41.1 nM; against PDGFR beta [2], 9.4 nM.

In the case of `Cc1nn(Cc2cccc(C3CC3)n2)c2cccc(NC(=O)c3cnc4cc(OCCN5CCN(C)CC5)ccn34)c12` [Example 47, N-(1-((6-cyclopropylpyridin-2-yl)methyl)-3-methyl-1H-indazol-4-yl)-7-(2-(4-methylpiperazin-1-yl)ethoxy)imidazo[1,2-a]pyridine-3-carboxamide], the IC50 stood at 6.5 nM against PDGFR beta [1], 15.9 nM at cFMS, 48.5 nM on c-KIT and 74.9 nM against PDGFR beta [2].

With `Cc1nn(Cc2cccc(C(C)C)n2)c2cccc(NC(=O)c3cnc4cc(OCCN5CCN(C)[C@H](C)C5)ccn34)c12` [Example 28, (R)-7-(2-(3,4-dimethylpiperazin-1-yl)ethoxy)-N-(1-((6-isopropylpyridin-2-yl)methyl)-3-methyl-1H-indazol-4-yl)imidazo[1,2-a]pyridine-3-carboxamide], the 50% inhibitory concentration (IC50) at PDGFR beta [1] was 9.9 nM; at cFMS it was 14 nM; at c-KIT, 35.5 nM; against PDGFR beta [2], 5.9 nM.

Turning to `Cc1nn(Cc2cccc(C3CC3)n2)c2cccc(NC(=O)c3cnc4cc(OCCN5CCN(C)[C@@H](C)C5)ccn34)c12` [Example 26, (S)—N-(1-((6-cyclopropylpyridin-2-yl)methyl)-3-methyl-1H-indazol-4-yl)-7-(2-(3,4-dimethylpiperazin-1-yl)ethoxy)imidazo[1,2-a]pyridine-3-carboxamide dihydrochloride], the IC50 is 63.2 nM on PDGFR beta [1], 13.7 nM on cFMS, 27.9 nM at c-KIT and 29.6 nM on PDGFR beta [2].

`Cc1nn(Cc2ccc(C(F)(F)F)cn2)c2cccc(NC(=O)c3cnc4cc(OCCN5CCN(C(C)C)CC5)ccn34)c12` [Example 44, 7-(2-(4-isopropylpiperazazin-1-yl)ethoxy)-N-(3-methyl-1-((5-(trifluoromethyl)pyridin-2-yl)methyl)-1H-indazol-4-yl)imidazo[1,2-a]pyridine-3-carboxamide]: the IC50 on PDGFR beta [1] is 794 nM; at cFMS it was 22.7 nM; at c-KIT, 63.4 nM; against PDGFR beta [2], 116 nM.

Regarding `Cc1nn(Cc2cccc(C(C)C)n2)c2cccc(NC(=O)c3cnc4cc(OCCN5CC6(CNC6)C5)ccn34)c12` [Example 3, 7-(2-(2,6-diazaspiro[3.3]heptan-2-yl)ethoxy)-N-(1-((6-isopropylpyridin-2-yl)methyl)-3-methyl-1H-indazol-4-yl)imidazo[1,2-a]pyridine-3-carboxamide trihydrochloride], the half-maximal inhibitory concentration (IC50) against PDGFR beta [1] was 10 nM; on cFMS, 70.4 nM; at c-KIT it was 176 nM; on PDGFR beta [2], 138 nM.

Take `Cc1nn(Cc2cccc(C(C)C)n2)c2cccc(NC(=O)c3cnc4cc(OCCN5CC6(COC6)C5)ccn34)c12` [Example 5, 7-(2-(2-oxa-6-azaspiro[3.3]heptan-6-yl)ethoxy)-N-(1-((6-isopropylpyridin-2-yl)methyl)-3-methyl-1H-indazol-4-yl)imidazo[1,2-a]pyridine-3-carboxamide]: the half-maximal inhibitory concentration (IC50) on PDGFR beta [1] was 22 nM; at cFMS, 27.9 nM; at c-KIT, 82.8 nM; on PDGFR beta [2], 20.5 nM.

With `Cc1nn(Cc2cccc(C3CC3)n2)c2cccc(NC(=O)c3cnc4cc(OCCN5CCN(C)[C@H](C)C5)ccn34)c12` [Example 27, (R)—N-(1-((6-cyclopropylpyridin-2-yl)methyl)-3-methyl-1H-indazol-4-yl)-7-(2-(3,4-dimethylpiperazin-1-yl)ethoxy)imidazo[1,2-a]pyridine-3-carboxamide dihydrochloride], the half-maximal inhibitory concentration (IC50) turned out to be 72.6 nM against PDGFR beta [1], 13.8 nM at cFMS, 36.2 nM on c-KIT and 69.5 nM against PDGFR beta [2].

On to `Cc1nn(Cc2cccc(C3CC3)n2)c2cccc(NC(=O)c3cnc4cc(OCCN5CCN(C(C)C)CC5)ccn34)c12` [Example 16, N-(1-((6-cyclopropylpyridin-2-yl)methyl)-3-methyl-1H-indazol-4-yl)-7-(2-(4-isopropylpiperazin-1-yl)ethoxy)imidazo[1,2-a]pyridine-3-carboxamide], for which the IC50 against PDGFR beta [1] was 103 nM; at cFMS, 13.9 nM; at c-KIT, 34.8 nM; against PDGFR beta [2], 28.1 nM.

As for `Cc1nn(Cc2cccc(C(C)C)n2)c2cccc(NC(=O)c3cnc4cc(OCCN5CCN(C)CC5)ccn34)c12` [Example 66, N-(1-((6-isopropylpyridin-2-yl)methyl)-3-methyl-1H-indazol-4-yl)-7-(2-(4-methylpiperazin-1-yl)ethoxy)imidazo[1,2-a]pyridine-3-carboxamide], the half-inhibitory concentration (IC50) against PDGFR beta [1] came to 4.8 nM; on cFMS it was 10.2 nM; at c-KIT, 30.7 nM; on PDGFR beta [2] it was 18.3 nM.
